{
  "source": "patent US10517871B2",
  "about": "“Survivin-targeting anti-tumor agents and uses thereof” (Indiana University Research and Technology Corporation, priority 2015, dated 2019)",
  "key": {"human cancers": {"tested_on": "human cancers", "details": "several phase II trials; cited from earlier work"}, "survivin in PC3 cells [1]": {"target": "T1, survivin in PC3 cells (Homo sapiens, UniProt O15392)", "T1 construct": "endogenous in cells; host or cells: PC-3 cells", "T1 sequence (O15392 whole entry)": "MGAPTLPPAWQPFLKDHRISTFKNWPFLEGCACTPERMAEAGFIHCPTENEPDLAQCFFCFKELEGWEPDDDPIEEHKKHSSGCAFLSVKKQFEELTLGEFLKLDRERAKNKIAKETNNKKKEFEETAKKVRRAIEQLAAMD", "assay": "Proteasome inhibitor reversal of compound-induced survivin degradation", "assay_type": "cell-based", "details": "for effect of proteasome inhibitor on LQZ-7F-induced survivin degradation: co-treatment with LQZ-7F"}, "DU145 cells": {"tested_on": "DU145 cells", "assay": "MTT cell survival assay, DU145", "assay_type": "cell-based, human", "details": "compared with LQZ-7", "method": "(§1) Human prostate cancer cell lines DU145 (top) and PC3 cells (bottom) were cultured in the presence of vehicle DMSO or 20 μM compounds off in-silico screening for 3 days followed by MTT assay. Cells survived in the presence of various compounds were normalized to that treated by DMSO vehicle. Arrows indicate compounds that inhibited >50% in cell survival. (*p<0.05; **p<0.01).\n(§2) These assays were performed as previously described^49,50. Briefly, MTT assay were performed by seeding 2500 cells in 96-well plate and cultured 24 hours before addition of survivin inhibitors at different concentrations and continuous culture for 3 days. The cells were then subjected to MTT assay. For colony formation assay, 100 cells/well were seeded in 6-well plates and cultured for 24 hours before addition of survivin inhibitors or DMSO vehicle. The cells were continuously cultured in the presence of survivin inhibitors or DMSO for 10-14 days followed by staining with crystal violet and counting manually."}, "PC-3 cells [2]": {"tested_on": "PC-3 cells", "assay": "MTT cell survival assay, PC-3", "assay_type": "cell-based, human", "details": "PC3, MTT, compared with LQZ-7", "method": "as §1, §2"}, "[3]": {"tested_on": "multiple human cancer cell lines (acute myeloid leukemia, breast, colon, lung, pancreas, prostate, ovary)", "assay": "MTT assay, multiple human cancer cell lines", "assay_type": "cell-based", "details": "range over all cell lines tested, read-out: IC50 for survival of cancer cell lines", "method": "Toward this goal, we tested the effect of LQZ-7F on survival of multiple human cancer cell lines representing acute myeloid leukemia and cancers of breast, colon, lung, pancreas, prostate, and ovary using MTT assay.\nas §2"}, "survivin in DU145 cells": {"target": "T2, survivin in DU145 cells (Homo sapiens, UniProt O15392)", "T2 construct": "endogenous in cells; host or cells: DU145", "T2 sequence (O15392 whole entry)": "as above", "assay": "Western blot of endogenous survivin, DU145", "assay_type": "cell-based", "details": "vs vehicle"}, "survivin in PC3 cells [4]": {"target": "T1, survivin in PC3 cells", "assay": "Western blot of endogenous survivin, PC3", "assay_type": "cell-based", "details": "vs vehicle"}, "[5]": {"target": "T3, ectopic Flag-tagged survivin in HEK293 cells (Homo sapiens, UniProt O15392)", "T3 construct": "expressed in transfected cells; host or cells: HEK293 cells, CMV promoter", "T3 sequence (O15392 whole entry)": "as above", "assay": "Western blot of ectopic tagged survivin in HEK293", "assay_type": "cell-based"}, "[6]": {"target": "T4, survivin in DU145 and PC-3 cells (Homo sapiens, UniProt O15392)", "T4 construct": "endogenous in cells; host or cells: DU145 and PC-3 cells", "T4 sequence (O15392 whole entry)": "as above", "assay": "Survivin half-life determination (cycloheximide chase)", "assay_type": "cell-based", "details": "PC-3, cycloheximide pre-treated, 5 μM LQZ-7F", "method": "PC-3 cells were pre-treated with cycloheximide (CHX) to inhibit protein synthesis followed by chasing for different times in the presence of LQZ-7F or DMSO control and Western blot analysis of remaining survivin.\nThe effect of survivin inhibitor on the half-life of survivin was determined as previously described^51. […] The cells were then harvested for Western blot analysis of survivin."}, "purified survivin": {"target": "purified survivin (Homo sapiens, UniProt O15392)", "sequence (O15392 whole entry)": "as above", "assay": "Pull-down assay with sepharose-immobilized compound", "assay_type": "binding", "details": "CNBr-activated sepharose, vs control beads", "excerpt": "LQZ-7F was immobilized onto CNBr-activated Sepharose and used to pull down recombinant survivin, followed by separation on SDS-PAGE and silver staining.\nTo investigate if LQZ-7F indeed binds to survivin, we took advantage of the primary amine group and immobilized LQZ-7F onto CNBr-activated sepharose for a pull-down assay using purified survivin."}, "PC3 cells": {"tested_on": "PC3 cells", "assay": "Colony formation assay, PC3", "assay_type": "cell-based, human", "set-up": "unit of the concentration uncertain", "details": "control approximately 62%", "method": "as §2"}, "A549 cells": {"tested_on": "A549 cells", "assay": "Colony formation assay, A549", "assay_type": "cell-based, human", "details": "control 45%", "method": "as §2"}, "PC-3 cells [7]": {"tested_on": "PC-3 cells", "assay": "Microtubule structure by α-tubulin immunostaining", "assay_type": "cell-based, human", "details": "PC-3, 2 μM, 24 hours", "method": "PC3 cells were treated without or with 2 μM LQZ-7F for 24 hours followed by immunostaining of α-tubulin and counter-stained with DAPI. The images were captured using confocal microscopy."}, "PC-3 xenograft tumors": {"tested_on": "PC-3 xenograft tumors", "assay": "PC-3 xenograft mouse model efficacy", "assay_type": "in vivo, NOD/SCID mice", "method": "We next determined if LQZ-7F is active in suppressing tumor growth in vivo using xenograft animal model. For this purpose, NOD/SCID mice were first implanted subcutaneously with PC-3 cells to establish xenograft tumors. PC-3 cell was chosen because it has highest IC50 (FIG. 6). When the xenograft tumor reached the size of ˜100 mm^3, the mice were randomized into two groups and treated with 25 mg/kg LQZ-7F or vehicle control via IP injection once every three days for total of 8 treatments. The growth of the xenograft tumors were measured using a caliper and body weight was monitored every three days for a total of 30 days. […] In fact, the body weight of the control group dropped slightly possibly due to disease burden of xenograft tumors. This symptom appears to be alleviated by LQZ-7F treatment, consistent with smaller tumor size in the treatment group.\nFor efficacy study, 3×10^6 PC-3 cells were injected subcutaneously in the flanks of 10 NOD/SCID mice. When the tumor volume reached about 100 mm^3, the mice were randomized into two different groups (5/group) with one group treated by vehicle control and the other by LQZ-7F at 25 mg/kg via IP injection once every three days for total of 8 treatments. Tumor volume and body weight were measured […]. On the 30th day after the initial treatment, mice were euthanized and the tumor tissues were harvested, weighed, and subjected to hematoxylin and eosin (H&E) staining as well as Western blot and immunohistochemistry analysis of survivin."}, "cancer cells": {"tested_on": "cancer cells", "details": "read-out: IC50 for proliferation of cancer cells; cited from earlier work"}, "survivin": {"target": "survivin (Homo sapiens, UniProt O15392)", "sequence (O15392 whole entry)": "as above", "details": "cited from earlier work"}, "[8]": {"target": "survivin and its partner Ran protein (Homo sapiens, UniProt O15392)", "sequence (O15392 whole entry)": "as above", "details": "cited from earlier work"}, "14-3-3σ": {"target": "T5, 14-3-3σ (Homo sapiens, UniProt P31947)", "T5 sequence (P31947 1-248)": "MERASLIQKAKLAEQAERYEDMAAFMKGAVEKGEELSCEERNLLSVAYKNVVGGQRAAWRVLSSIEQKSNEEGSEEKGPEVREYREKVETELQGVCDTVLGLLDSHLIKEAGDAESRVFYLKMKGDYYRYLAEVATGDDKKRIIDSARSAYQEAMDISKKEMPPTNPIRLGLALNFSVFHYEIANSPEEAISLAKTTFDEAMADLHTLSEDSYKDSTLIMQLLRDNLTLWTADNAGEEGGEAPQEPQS", "assay": "Non-denaturing PAGE of 14-3-3σ dimerization", "assay_type": "biochemical", "details": "100 μM", "method": "After centrifugation at 11,000×g for 10 minutes, the supernatants were separated by electrophoresis on 15% Tris/glycine polyacrylamide gel followed by transfer to PVDF membrane for western blot analysis as previously described^48."}, "[9]": {"tested_on": "survivin mRNA in DU145 cells", "assay": "Real-time RT-PCR of survivin mRNA", "assay_type": "cell-based, human", "details": "DU145, 48 hrs"}},
  "note": "Entries after “also recorded” stand apart in the source; their conditions may differ. Residues, ends and D or L forms follow the SMILES beside them. *: point of attachment. Cbz = O=C(OCc1ccccc1)*",
  "data": [
    {"smiles": "COCCn1c2c([n+](Cc3cnccn3)c1C)C(=O)c1ccccc1C2=O", "note": "[YM155]", "values": [
      {"measurement": "clinical efficacy", "setting": "human cancers", "value": "limited or modest at best efficacy"}
    ]},
    {"smiles": "CC(C)C[C@@H](C=O)NC(=O)[C@H](CC(C)C)NC(=O)[C@H](CC(C)C)NC(=O)OCc1ccccc1", "note": "[MG132] (Cbz-Leu-Leu-Leu-aldehyde)", "values": [
      {"measurement": "effect of proteasome inhibitor on LQZ-7-induced survivin loss", "setting": "survivin in PC3 cells [1]; co-treatment with LQZ-7, PC-3", "value": "reversed"},
      {"measurement": "effect of proteasome inhibitor on LQZ-7F-induced survivin degradation", "setting": "survivin in PC3 cells [1]", "value": "able to rescue"}
    ]},
    {"smiles": "Nc1nonc1C(=O)N/N=C1\\c2ccccc2-c2nc3nonc3nc21", "note": "[LQZ-7F]", "values": [
      {"measurement": "IC50 in words", "setting": "DU145 cells", "value": "lower IC50 than the parent compound"},
      {"measurement": "IC50 in words", "setting": "PC-3 cells [2]", "value": "lower IC50 than the parent compound"},
      {"measurement": "IC50", "setting": "[3]", "value": "400 to 4400", "unit": "nM"},
      {"measurement": "endogenous survivin protein level", "setting": "survivin in DU145 cells", "value": "effectively suppressed"},
      {"measurement": "endogenous survivin protein level", "setting": "survivin in PC3 cells [4]", "value": "effectively suppressed"},
      {"measurement": "level of ectopic tagged survivin", "setting": "[5]", "value": "reduced survivin protein level; also recorded: completely eliminated survivin"},
      {"measurement": "degradation of endogenous survivin", "setting": "[6]", "value": "increased degradation"},
      {"measurement": "pull-down of survivin by immobilized compound", "setting": "purified survivin", "value": "successfully pulled down"},
      {"measurement": "colony formation efficiency", "setting": "PC3 cells; PC3, 0.2 (unit uncertain)", "value": "approximately 52%"},
      {"measurement": "colony formation efficiency", "setting": "PC3 cells; PC3, 0.5 (unit uncertain)", "value": "~12", "unit": "%"},
      {"measurement": "colony formation efficiency", "setting": "PC3 cells; PC3, 1 (unit uncertain)", "value": "~8", "unit": "%"},
      {"measurement": "colony formation efficiency", "setting": "A549 cells; A549, 0.2", "value": "approximately 2.5%"},
      {"measurement": "colony formation efficiency", "setting": "A549 cells; A549, 0.5", "value": "~0", "unit": "%"},
      {"measurement": "microtubule structure", "setting": "PC-3 cells [7]", "value": "severely disrupted"},
      {"measurement": "mitotic arrest", "setting": "PC-3 cells [7]", "value": "many cells are arrested in mitotic phase"},
      {"measurement": "body weight of mice", "setting": "PC-3 xenograft tumors; 25 mg/kg IP once every three days, 8 treatments", "value": "remained constant"},
      {"measurement": "growth of xenograft tumors", "setting": "PC-3 xenograft tumors; 25 mg/kg IP once every three days, 8 treatments, vs vehicle", "value": "significantly inhibited"},
      {"measurement": "average weight of final tumors", "setting": "PC-3 xenograft tumors; 25 mg/kg IP, day 30, vs control group", "value": "significantly less"},
      {"measurement": "apoptotic cells in tumors", "setting": "PC-3 xenograft tumors; 25 mg/kg IP, vs control-treated tumors", "value": "more apoptotic cells"},
      {"measurement": "survivin in xenograft tumors", "setting": "PC-3 xenograft tumors; Western blot and IHC, vs control-treated group", "value": "dramatically reduced"}
    ]},
    {"smiles": "CC(C)C[C@H](NC(=O)[C@H](Cc1ccccc1)NC(=O)c1cnccn1)B(O)O", "note": "[bortezomib]", "values": [
      {"measurement": "effect of proteasome inhibitor on LQZ-7F-induced survivin degradation", "setting": "survivin in PC3 cells [1]", "value": "able to rescue"}
    ]},
    {"smiles": "Cc1cccc(Nc2nc3nonc3nc2N/N=C/c2ccc(-c3ccc(Cl)c([N+](=O)[O-])c3)o2)c1C", "note": "[LQZ-7A]", "values": [
      {"measurement": "IC50 in words", "setting": "DU145 cells", "value": "low IC50"},
      {"measurement": "IC50 in words", "setting": "PC-3 cells [2]", "value": "low IC50"},
      {"measurement": "level of ectopic tagged survivin", "setting": "[5]", "value": "no effect"}
    ]},
    {"smiles": "N#Cc1c(-c2cc(OCc3ccccc3)cc(OCc3ccccc3)c2)cc(-c2cc(Cl)ccc2O)[nH]c1=O", "note": "[LLP3]", "values": [
      {"measurement": "IC50", "setting": "cancer cells", "value": "14 to 38", "unit": "µM"},
      {"measurement": "effect on survivin dimerization or its expression", "setting": "survivin", "value": "no effect"},
      {"measurement": "interaction between survivin and Ran protein", "setting": "[8]", "value": "inhibited"}
    ]},
    {"smiles": "Cc1cccc(Nc2nc3nonc3nc2N/N=C/c2ccc(-c3cccc(C(=O)O)c3)o2)c1C", "note": "[LQZ-7]", "values": [
      {"measurement": "effect on 14-3-3σ dimerization", "setting": "14-3-3σ", "value": "no effect"},
      {"measurement": "survivin mRNA level", "setting": "[9]", "value": "no effect"}
    ]},
    {"smiles": "Cc1cccc(Nc2nc3nonc3nc2N/N=C/c2cc3c(cc2[N+](=O)[O-])OCO3)c1C", "note": "[LQZ-7D]", "values": [
      {"measurement": "IC50 in words", "setting": "DU145 cells", "value": "low IC50"},
      {"measurement": "IC50 in words", "setting": "PC-3 cells [2]", "value": "low IC50"},
      {"measurement": "level of ectopic tagged survivin", "setting": "[5]", "value": "no effect"}
    ]}
  ]
}
